According to PMC8069214, “Synthesis, Biological Evaluation, and Molecular Modeling of Aza-Crown Ethers” (Molecules, 2021):

Experiments:
human neutrophils [1] = test: PMA-induced ROS production (L-012 chemiluminescence); assay type: cell-based; conditions: Neutrophil, 200 nM PMA, N.A. = no activity at < 50 µM
Excerpt: To evaluate if the crown ethers could also disrupt GPCR-independent functional activity, we evaluated the effects of these compounds on phorbol 12-myristate 13-acetate (PMA)-stimulated reactive oxygen species (ROS) production. […] A representative concentration-dependent response for the inhibition of PMA-stimulated neutrophil ROS production by compound 15 is shown in Figure 2B. Since ROS production in neutrophils also requires increased [Ca^2+]i, the results again confirm that the impact of these compounds on Ca^2+ flux kinetics can alter neutrophil function.
ROS production was determined by monitoring L-012-enhanced chemiluminescence, which represents a sensitive and reliable method for detecting superoxide anion (O2^−.) production. Human neutrophils were resuspended at 2 × 10^5 cells/mL in HBSS^+ supplemented with 40 µM L-012. Cells (100 µL) were aliquoted into wells of 96-well flat-bottomed microtiter plates containing test compounds at different concentrations (final DMSO concentration of 1%). Cells were preincubated for 10 min, and 200 nM PMA was added to each well to stimulate ROS production. Luminescence was monitored for 120 min (2-min intervals) at 37 °C using a Fluroscan Ascent FL microtiter plate reader (Thermo Electron, Waltham, MA, USA). The curve of light intensity (in relative luminescence units) was plotted against time, and the area under the curve was calculated as total luminescence. The compound concentration that inhibited ROS production by 50% of the PMA-induced response (positive control) was determined by graphing the percentage inhibition of ROS production versus the logarithm of concentration of test sample (IC50). Each curve was determined using five to seven concentrations.

human neutrophils [2] = test: Inhibition of fMLF-induced [Ca2+]i flux in human neutrophils; assay type: cell-based; conditions: Neutrophil, 10 min preincubation, 5 nM fMLF, N.A. = no activity at < 50 µM, read-out: FPR1/FPR2 Agonist-Induced Δ[Ca^2+]i Neutrophils IC50
Procedure: Since these compounds elevated neutrophil [Ca^2+]i, and cytosolic Ca^2+ flux is a key component of neutrophil activation, we evaluated if they could alter neutrophil activation by FPR1 or FPR2 agonists. Neutrophils and FPR-transfected HL60 cells were preincubated for 10 min with crown ether compounds, and [Ca^2+]i flux was stimulated with either an FPR1 agonist (fMLF for human neutrophils and FPR1-HL60 cells) or an FPR2 agonist (WKYMVM for FPR2-HL60 cells).
Changes in neutrophil intracellular Ca^2+ concentrations ([Ca^2+]i) were measured with a FlexStation 3 scanning fluorometer (Molecular Devices, Sunnyvale, CA, USA). Briefly, human neutrophils were suspended in HBSS^−, loaded with Fluo-4AM at a final concentration of 1.25 μg/mL, and incubated for 30 min in the dark at 37 °C. After dye loading, the cells were washed with HBSS^−, resuspended in HBSS^+, separated into aliquots, and loaded into the wells of flat-bottom, half-area well black microtiter plates (2 × 10^5 cells/well). To assess the direct effects of test compounds on Ca^2+ flux, the compounds were added to the wells (final concentration of DMSO was 1%), and changes in fluorescence were monitored (λex = 485 nm, λem = 538 nm) every 5 s for 240 s at room temperature after addition of the test compound. To evaluate inhibitory effects of the compounds on FPR1/FPR2-dependent Ca^2+ flux, the compounds were added to the wells (final concentration of DMSO was 1%) with cells (human neutrophils or FPR1/FPR2 HL60 cells). The samples were preincubated for 10 min, followed by addition of 5 nM fMLF (for human neutrophils or FPR1-HL60 cells) or 5 nM WKYMVM (for FPR2-HL60 cells). The maximum change in fluorescence, expressed in arbitrary units over baseline, was used to determine the agonist response. Responses were normalized to the response induced by 5 nM fMLF or 5 nM WKYMVM, which were assigned as 100%. Curve fitting (at least five or six points) and calculation of median effective concentration values (EC50 or IC50) were performed by nonlinear regression analysis of the dose–response curves generated using Prism 7 (GraphPad Software, Inc., San Diego, CA, USA). Efficacy was determined by comparing individual responses activated by the test compounds to that induced by a positive control (5 nM fMLF), which was assigned a value of 100%.

| IC50 (human neutrophils [1]) [µM] | IC50 (human neutrophils [2]) [µM] | melting point [°C] | SMILES |
| --- | --- | --- | --- |
| 25.9 ± 2.7 | 7.4 ± 1.3 |  | O=C(N1CCOCCOCCN(C(=O)C23CC4CC(CC(C4)C2)C3)CCOCC1)C12CC3CC(CC(C3)C1)C2 [Compound 13, N,N’-bis[1-oxo-1-(1-adamantyl)methyl]-4,10-diaza-15-crown-5] |
| 21.9 ± 2.2 | 3.5 ± 0.4 |  | O=C(N1CCOCCOCCOCCN(C(=O)C23CC4CC(CC(C4)C2)C3)CCOCC1)C12CC3CC(CC(C3)C1)C2 [Compound 14, N,N’-bis[1-oxo-1-(1-adamantyl)methyl]-4,10-diaza-18-crown-6] |
| 4.1 ± 0.1 | 4.1 ± 0.6 | 72 to 76 | O=C(CC12CC3CC(CC(C3)C1)C2)N1CCOCCOCCN(C(=O)CC23CC4CC(CC(C4)C2)C3)CCOCC1 [Compound 15, N,N’-bis[2-(1-adamantyl)acetyl]-4,10-diaza-15-crown-5] |
| 8.2 ± 0.1 | 1.5 ± 0.4 |  | O=C(CC12CC3CC(CC(C3)C1)C2)N1CCOCCOCCN(C(=O)CC23CC4CC(CC(C4)C2)C3)CCOCCOCC1 [Compound 17, N,N’-bis[2-(1-adamantyl)acetyl]-4,13-diaza-18-crown-6] |
